Measurements published in ChEMBL document CHEMBL4020762, “Protective effect of lanostane triterpenoids from the sclerotia of Poria cocos Wolf against cisplatin-induced apoptosis in LLC-PK1 cells” (2017).
The source made the active and inactive calls. No cut-off for these calls is given here.

What was measured:
Sus scrofa [1] = species on record: Sus scrofa; test: Inhibition of cisplatin-induced increase in phosphorylated p38 MAPK levels in pig LLC-PK1 cells at 50 to 100 uM pretreated for 2 hrs followed by cisplatin addition after 24 hrs by radioimmunoprecipitation assay; type: cell-based
A2780 [2] = test: Potentiation of cisplatin-induced cytotoxicity against human A2780 cells up to 100 uM after 24 hrs in presence of cisplatin by Ez-Cytox reagent based assay; type: functional, cell-based
LLC-PK1 [3] = test: Renoprotective activity in pig LLC-PK1 cells assessed as inhibition of cisplatin-induced damage by measuring cell viability at 50 to 100 uM preincubated for 2 hrs followed by cisplatin addition after 24 hrs by Ez-Cytox reagent based assay (reference value: 60%); type: functional, Sus scrofa
LLC-PK1 [4] = test: Renoprotective activity in pig LLC-PK1 cells assessed as inhibition of cisplatin-induced damage by measuring increase in cell viability preincubated for 2 hrs followed by cisplatin addition after 24 hrs by Ez-Cytox reagent based assay; type: functional; settings: Sus scrofa
Sus scrofa [5] = species on record: Sus scrofa; test: Inhibition of cisplatin-induced increase in phosphorylated ERK levels in pig LLC-PK1 cells at 50 to 100 uM pretreated for 2 hrs followed by cisplatin addition after 24 hrs by radioimmunoprecipitation assay; type: cell-based
LLC-PK1 [6] = test: Renoprotective activity in pig LLC-PK1 cells assessed as inhibition of cisplatin-induced increase in caspase-3 cleavage at 50 to 100 uM preincubated for 2 hrs followed by cisplatin addition after 24 hrs by radioimmunoprecipitation assay; type: functional, cell-based; settings: Sus scrofa
LLC-PK1 [7] = test: Renoprotective activity in pig LLC-PK1 cells assessed as inhibition of cisplatin-induced apoptosis by measuring apoptotic cells at 50 to 100 uM preincubated for 2 hrs followed by cisplatin addition after 24 hrs by annexin-V Alexa Fluor488/propidium iodide staining based cytometric method (reference value: 26.3%); type: functional, Sus scrofa
Sus scrofa [8] = species on record: Sus scrofa; test: Inhibition of cisplatin-induced increase in phosphorylated JNK levels in pig LLC-PK1 cells at 50 to 100 uM pretreated for 2 hrs followed by cisplatin addition after 24 hrs by radioimmunoprecipitation assay; type: cell-based
LLC-PK1 [9] = test: Renoprotective activity in pig LLC-PK1 cells assessed as inhibition of cisplatin-induced damage by measuring increase in cell viability at 10 to 100 uM preincubated for 2 hrs followed by cisplatin addition after 24 hrs by Ez-Cytox reagent based assay; type: functional; settings: Sus scrofa
A2780 [10] = test: Potentiation of cisplatin-induced cytotoxicity against human A2780 cells after 24 hrs in presence of cisplatin by Ez-Cytox reagent based assay; type: functional, cell-based

## C=C(CC[C@@H](C(=O)O)[C@H]1CC[C@@]2(C)C3=CC[C@H]4C(C)(C)[C@@H](OC(C)=O)CC[C@]4(C)C3=CC[C@]12C)C(C)C
Sus scrofa [1]
  inhibition: Active
A2780 [2]
  Activity: Active
LLC-PK1 [3]
  inhibition (INH): <=80%
LLC-PK1 [4]
  inhibition: Dose-dependent effect
Sus scrofa [5]
  inhibition: Active
LLC-PK1 [6]
  inhibition: Active
LLC-PK1 [7]
  inhibition (INH): 4.3%
Sus scrofa [8]
  inhibition: Active

## O=c1c(O)c(-c2ccc(O)c(O)c2)oc2cc(O)cc(O)c12
LLC-PK1 [9]
  inhibition: Active

## CC(=O)O[C@H]1CC[C@]2(C)C3=CC[C@]4(C)[C@@H]([C@@H](CCC=C(C)C)C(=O)O)CC[C@@]4(C)C3=CC[C@H]2C1(C)C
LLC-PK1 [4]
  inhibition: Dose-dependent effect
A2780 [10]
  Activity: inactive
